Experimental data as given in patent publication US20210338719A1 (SOCIETE DES PRODUITS NESTLE S.A., priority 2017, published 2021).

Test: Oxidation of LC-PUFAs caused by iron source
Assay type: physicochemical
Settings: iron source in composition containing LC-PUFAs

Structure (SMILES) | Oxidation of LC-PUFAs
O.O.O.O.O.O.O.O=S(=O)([O-])[O-].[Fe+2] [ferrous sulphate heptahydrate] | significant oxidation of LC-PUFAs
O.O=S(=O)([O-])[O-].[Fe+2] [ferrous sulphate monohydrate] | no significant oxidation of LC-PUFAs
